Data: patent publication US7511119B2, “PRAME peptide analogues” (MannKind Corporation, priority 2005, dated 2009)
Values belong to the molecule of their own block, whether it stands above or below them. Square brackets hold non-standard residues; d marks the D form. Ends that are not written are not given here. Nle = CCCC[C@H](N)C(=O)O; Nva = CCC[C@H](N)C(=O)O

What was measured:
[1] = system: native PSMA288-297 peptide; test: Cross-reactive immunogenicity of PSMA analogs, IFN-gamma ELISPOT; assay type: in vivo, HHD transgenic mice; settings: peptide plus pI:C intranodal; FIG. 22
Method: Groups of HHD transgenic mice (n=8) were immunized with peptide (natural epitope PSMA288-297, or analogs bearing substitutions at primary or secondary anchor residues) by direct inoculation into the inguinal lymph nodes, with 25 μg in 25 μl of PBS+12.5 μg of pI:C to each lymph node at day 0, 3, 14 and 17.
Mice were sacrificed at 10 days after the last boost, and splenocytes prepared and assessed for IFN-γ production by ELISPOT analysis. […] At 48 hours after incubation, the assay was developed and the frequency of cytokine-producing T cells that recognized native PSMA288-297 peptide was automatically counted. The data is represented in FIG. 22 as the number of spot forming colonies/well (mean of triplicates±SD). […] To the extent that the poor immunogenicity of the native epitope reflects tolerance, the improved activity of these analogs represents tolerance breaking.

[2] = system: T cells specific for the wild-type NY-ESO-1157-165 epitope; test: Cross-reactivity and functional avidity of NY-ESO-1 157-165 analogs (IFN-gamma production ex vivo); assay type: cell-based, HHD transgenic mice; settings: relative to wild-type peptide; FIG. 13
[3] = system: native peptide loaded splenocytes; test: In vivo cytotoxicity against native PRAME peptide-loaded splenocytes (CFSE); parameters: species or system HHD transgenic mice; settings: pCTLR2 prime, peptide boost; FIGS. 30-31
[4] = system: PRAME425-433-specific T cells; test: Tetramer/CD8 co-staining of PRAME425-433-specific T cells; assay type: in vivo, HHD transgenic mice; settings: versus boost with negative control peptide; FIG. 31
HLA-A*0201 [5] = molecular target: T1, HLA-A*0201 (Homo sapiens, UniProt P04439, D140Y/D185E/D98H/E176V/E277Q/G131W/G231S/I119V/I121R/I166T/I218V/L300P/L318F/N151K/N90K/P208A/P217A/Q86G/Q94H/R138H/R169H/T345S); test: Peptide binding using T2 cells; settings: for Relative affinity (1/RA): half maximal binding of wild-type peptide relative to analog;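 as to all read-outs here: Read-out is peptide-induced stabilization of HLA-A*0201 on the cell surface, reflecting mainly Kon at limiting peptide levels and both Kon and Koff at saturating levels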
Text: Thus, at limiting concentrations of peptide, it is a measurement of Kon mostly and at saturation levels of peptide it is a measurement of both Kon and Koff.
Thus, at limiting concentrations of peptide, this is a measurement of Kon mostly and at saturation levels of peptide that is a measurement of both Kon and Koff.

LnCap cells = test: Ex vivo cytotoxicity against PSMA+ A2+ human tumor cells; assay type: in vivo; settings: splenocytes restimulated ex vivo with native PSMA288-297
Method: HHD transgenic mice (n=4) were immunized with PSMA288-297 peptide (25 μg in 25 μl of PBS, plus 12.5 μg of pI:C to each lymph node) at day 0, 3, 14 and 17. One week after the boost, splenocytes were stimulated ex vivo with the native PSMA288-297 peptide and tested against ^51Cr-labeled human tumor cells (PSMA^+ A2^+ LnCap cells, or as negative control, LnCap cells coated with MHC class I-blocking antibody) at various E:T ratios.
HHD transgenic mice (n=4) were immunized with plasmid expressing the PSMA288-297 epitope by direct inoculation into the inguinal lymph nodes with 25 μg in 25 μl of PBS to each lymph node at day 0, 3, 14 and 17. This was followed by two peptide boosts (same amount) at day 28 and 31, with the analog I297V. One week after the boost, splenocytes were stimulated ex vivo with the native PSMA288-297 peptide and tested overnight against ^51Cr-labeled human tumor cells (Lncap, A2^+ PSMA^+; or 624.38 A2^+ PSMA^− or control 624.28 cells A2^− PSMA^−) at various E:T ratios.

[6] = system: target cells coated with wild-type peptide; test: In vivo cytotoxicity against wild-type NY-ESO-1 peptide-coated target cells; parameters: species or system HHD mice; settings: plasmid entrain, peptide amplify; FIGS. 15-16
Method: (§1) These cells were then stained with CFSE^hi and CFSE^med fluorescence (4.0 μM or 1 μM, respectively, for 15 minutes) and intravenously co-injected into immunized mice with an equal number of control splenocytes stained with CFSE^lo fluorescence (0.4 μM). Eighteen hours later the specific elimination of target cells was measured by removing the spleens and PBMC from challenged animals and measuring CFSE fluorescence by flow cytometry. The relative depletion of the populations corresponding to peptide loaded splenocytes was calculated relative to the control (unloaded) population and expressed as % specific lysis.

splenocytes = test: Ex vivo IFN-gamma production after re-stimulation with wild-type NY-ESO-1157-165 (ELISA); assay type: in vivo, mice; settings: 10 μM wild-type peptide, 3 and 6 days; FIG. 17
Text: Supernatants were harvested and the concentration of IFN-γ measured by ELISA.

624.38 melanoma cells [7] = test: Ex vivo cytotoxicity against PRAME+ A2+ human tumor cells; assay type: in vivo; settings: splenocytes restimulated ex vivo with native PRAME peptide
Method: This was followed by two peptide boosts (2.5 μg) at day 28 and 31, with the analog L426Nva L433Nle.

[8] = system: T cell lines against natural epitope SSX-241-49; test: Cross-reactivity and functional avidity: IFN-gamma production by T cell lines raised against natural SSX-2 41-49; assay type: cell-based, HHD transgenic mice; settings: T cells raised to native peptide tested on analogs; footnote * and unit not given;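 also: analogs presented ex vivo by competent APCs to T cells specific for the non-mutated epitope, scored by lowest activating concentration, peak cytokine effect and concentration at that peak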
[9] = system: target cells coated with natural peptide; test: In vivo cytotoxicity against splenocytes coated with natural SSX-2 41-49 peptide (CFSE); parameters: species or system HHD mice; settings: spleen and blood; targets coated with 20 μg/ml and 1 μg/ml natural peptide
Method: Eight groups of mice (n=4) were immunized with plasmid expressing SSX-241-49 natural epitope, by direct inoculation into the inguinal lymph nodes with 25 μg in 25 μl of PBS/each lymph node at day 0, 3, 14 and 17. This was followed by two additional peptide boosts (similar amount) at day 28 and 31, using a negative control peptide (Melan A 26-35 “EAA”), natural peptide or analogs as shown in FIG. 9.
as §1, with “To evaluate the in vivo response against natural peptide, splenocytes were isolated from littermate control HHD mice and incubated with 20 μg/mL or 1 μg/ml of natural peptide for 2 hours. These” for “These”, “CFSE^hi” for “CFSE^hi and CFSE^med”, “[…]” for “1 μM, respectively,”, “spleen” for “the spleens”, “lysis. FIG. 10 (spleen) and 11 (blood) show the in vivo cytotoxicity elicited by the regimens described in FIG. 7.” for “lysis.”

HLA-A*0201 [10] = molecular target: T1, HLA-A*0201; test: iTopia affinity assay (ED50); assay type: binding; settings: PRAME425-433 analogs; affinity lower than native
Text: Avidin-coated microtiter plates containing class I monomer loaded with a so-called placeholder peptide were used to evaluate peptide binding, affinity and off-rate. The monomer-coated plates were supplied as part of the iTopia Epitope Discovery System Kit (Beckman Coulter, Inc., San Diego, Calif., USA). Assay buffers, anti-MHC-FITC mAb and beta2-microglobulin and control peptides were also supplied with the kits.
Plates were read on the fluorometer. Sigmoidal dose response curves were generated using Prism software.

624.38 melanoma cells [11] = test: Ex vivo cytotoxicity against human tumor cells after boost with SSX-2 analogs; assay type: in vivo; settings: plasmid prime, peptide boost; FIG. 12
Method: Eight groups of mice (n=4) were immunized with plasmid expressing SSX-241-49 natural epitope by direct inoculation into the inguinal lymph nodes with 25 ug in 25 ul of PBS/each lymph node at day 0, 3, 14 and 17. This was followed by two additional peptide boosts (similar amount) at day 28 and 31, using a negative control peptide (Melan A 26-35 “EAA”), natural peptide or analogs as shown in FIG. 9.

HLA-A*0201 on T2 cells = molecular target: T2, HLA-A*0201 on T2 cells (human); test: T2 cells, wild-type/analog half-maximal binding
T2 construct: whole, on cells; Class I MHC on the surface of T2 cells, detected with a fluorescent anti-A2 antibody; beta2-microglobulin is not mentioned for this assay; also called MHC class I (A2 allele)

Molecule: GLWSIPVHPI [Peptide P290W]
priming of immune response against native PSMA288-297 (IFN-γ ELISPOT), in words [1]: increased priming

Molecule: NY-ESO-1157-166: 10-mer of the wild-type sequence NY-ESO-1 157-166 (SLLMWITQCF; UniProt P78358 157-166, looked up, fragment) [reference compound]
activity in cross-reactivity assay (NY-ESO-1 157-165 specific T cells), in words [2]: no immunological activity

Molecule: T{Nva}LQHLIG{Nle} (T[Nva]LQHLIG[Nle]) [S425T L426Nva L433Nle]
in vivo cytotoxicity against native epitope, in words [3]: capable of expanding the immunity against the native epitope
expansion of T cells specific against the native epitope (tetramer staining) [4]: significantly higher

Molecule: GLPSIPVHPI (T cell peptide epitope analog) [PSMA 288-297, reference compound]
binding affinity / binding profile with HLA-A*0201 on T2 cells, in words (HLA-A*0201 [5]; compared with wild-type peptide): generally superior binding characteristics
priming of immune response against native PSMA288-297 (IFN-γ ELISPOT), in words [1]: poorly immunogenic
cytotoxicity against LnCap human tumor cells (LnCap cells): able to lyse human tumor cells

Molecule: {Abu}LPSIPVHPI (XLPSIPVHPI; Abu at position 288; T cell peptide epitope analog) [Peptide G288Abu, PSMA288-297 analog with G288Abu substitution]
priming of immune response against native PSMA288-297 (IFN-γ ELISPOT), in words [1]: slightly higher (but significant) activity

Molecule: L158V C165V: NY-ESO-1 157-165 analog with L158V and C165V substitutions (SVLMWITQV; UniProt P78358 157-165, looked up, variant L158V C165V)
in vivo cytotoxicity (% specific lysis), in words [6]: effect in the same range with wild-type peptide
IFN-gamma production upon ex vivo re-stimulation with wild-type peptide (splenocytes): increased amounts of IFN-gamma

Molecule: SLLQHLIGL [PRAME 425-433, reference compound]
cytotoxicity against 624.38 human tumor cells (624.38 melanoma cells [7]): able to lyse human tumor cells

Molecule: S157F L158V C165V: NY-ESO-1 157-165 analog with S157F, L158V and C165V substitutions (FVLMWITQV; UniProt P78358 157-165, looked up, variant S157F L158V C165V)
IFN-gamma production upon ex vivo re-stimulation with wild-type peptide (splenocytes): increased amounts of IFN-gamma

Relative affinity (1/RA) (HLA-A*0201 [5]): 1.5
Molecule: FASEKIFYV [SSX2 41-49 (K41F)]
Cross-reactivity and fct avidity (native to analogs)* [8]: 0.3
in vivo cytotoxicity (% specific lysis), in words [9]: increased activity

Molecule: SLLMWITQC [Nyeso-1 157-165, reference compound]
in vivo cytotoxicity (% specific lysis), in words [6]: variable cytotoxicity

Molecule: S157K L158V C165V: NY-ESO-1 157-165 analog with S157K, L158V and C165V substitutions (KVLMWITQV; UniProt P78358 157-165, looked up, variant S157K L158V C165V)
in vivo cytotoxicity (% specific lysis), in words [6]: effect in the same range with wild-type peptide

Molecule: S157Y L158I C165V: NY-ESO-1 157-165 analog with S157Y, L158I and C165V substitutions (YILMWITQV; UniProt P78358 157-165, looked up, variant S157Y L158I C165V)
activity in cross-reactivity assay (NY-ESO-1 157-165 specific T cells), in words [2]: increased activity relative to the wild-type peptide

ED50 relative to native peptide (HLA-A*0201 [10]): more than 10 fold
Molecule: Ala substitution: PRAME425-433 analog with Ala at the PΩ anchor position (SLLQHLIGA; UniProt P78395 425-433, looked up, variant L433A)

Relative affinity (1/RA) (HLA-A*0201 [5]): 1.7
Molecule: YASEKIFYV-OH [SSX2 41-49 (K41Y)]
Cross-reactivity and fct avidity (native to analogs)* [8]: 3
in vivo cytotoxicity (% specific lysis), in words [9]: increased activity

Relative affinity (1/RA) (HLA-A*0201 [5]): 1.6
Molecule: CC[C@H](C)[C@H](NC(=O)[C@H](Cc1ccc(O)cc1)NC(=O)[C@H](Cc1ccccc1)NC(=O)[C@@H](NC(=O)[C@H](CCCCN)NC(=O)[C@H](CCC(=O)O)NC(=O)[C@H](CO)NC(=O)[C@@H](NC(=O)[C@@H](N)Cc1ccccc1)C(C)C)[C@@H](C)CC)C(=O)O [SSX2 41-49 (K41F, A42V, V49I)]
Cross-reactivity and fct avidity (native to analogs)* [8]: 0.3
cytotoxicity against human tumor cells expressing natural SSX-2 41-49 epitope (624.38 melanoma cells [11]): increased cytotoxicity

Molecule: L158V: NY-ESO-1 157-165 analog with L158V substitution (SVLMWITQC; UniProt P78358 157-165, looked up, variant L158V) [Peptide L158V]
activity in cross-reactivity assay (NY-ESO-1 157-165 specific T cells), in words [2]: partial retention of activity

Relative affinity (1/RA) (HLA-A*0201 on T2 cells): 1.7 1/RA
B1: SSX2 41-49 (A42I) (peptide)
peptide: KISEKIFYV

Relative affinity (1/RA) (HLA-A*0201 on T2 cells): 1.7 1/RA
B2: SSX2 41-49 (A42M) (peptide)
peptide: KMSEKIFYV
